The text below walks through data of ChEMBL document CHEMBL1201862, “PubChem BioAssay data set” (2004).

The target of assay [1] is G-protein coupled receptor 35 (Homo sapiens, UniProt Q9HC97). Briefly: inhibition of zaprinast-stimulated GPR35 beta-arrestin translocation – imaging, U2OS, beta-arrestin-GFP, zaprinast agonist, primary screen (AID 2058).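 Also: antagonist potency meaning inhibition of agonist-induced arrestin redistribution.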 The format is functional.
Assay [2] has as its target T1, Insulin-degrading enzyme (Homo sapiens, UniProt P14735).
T1 sequence (P14735 whole entry): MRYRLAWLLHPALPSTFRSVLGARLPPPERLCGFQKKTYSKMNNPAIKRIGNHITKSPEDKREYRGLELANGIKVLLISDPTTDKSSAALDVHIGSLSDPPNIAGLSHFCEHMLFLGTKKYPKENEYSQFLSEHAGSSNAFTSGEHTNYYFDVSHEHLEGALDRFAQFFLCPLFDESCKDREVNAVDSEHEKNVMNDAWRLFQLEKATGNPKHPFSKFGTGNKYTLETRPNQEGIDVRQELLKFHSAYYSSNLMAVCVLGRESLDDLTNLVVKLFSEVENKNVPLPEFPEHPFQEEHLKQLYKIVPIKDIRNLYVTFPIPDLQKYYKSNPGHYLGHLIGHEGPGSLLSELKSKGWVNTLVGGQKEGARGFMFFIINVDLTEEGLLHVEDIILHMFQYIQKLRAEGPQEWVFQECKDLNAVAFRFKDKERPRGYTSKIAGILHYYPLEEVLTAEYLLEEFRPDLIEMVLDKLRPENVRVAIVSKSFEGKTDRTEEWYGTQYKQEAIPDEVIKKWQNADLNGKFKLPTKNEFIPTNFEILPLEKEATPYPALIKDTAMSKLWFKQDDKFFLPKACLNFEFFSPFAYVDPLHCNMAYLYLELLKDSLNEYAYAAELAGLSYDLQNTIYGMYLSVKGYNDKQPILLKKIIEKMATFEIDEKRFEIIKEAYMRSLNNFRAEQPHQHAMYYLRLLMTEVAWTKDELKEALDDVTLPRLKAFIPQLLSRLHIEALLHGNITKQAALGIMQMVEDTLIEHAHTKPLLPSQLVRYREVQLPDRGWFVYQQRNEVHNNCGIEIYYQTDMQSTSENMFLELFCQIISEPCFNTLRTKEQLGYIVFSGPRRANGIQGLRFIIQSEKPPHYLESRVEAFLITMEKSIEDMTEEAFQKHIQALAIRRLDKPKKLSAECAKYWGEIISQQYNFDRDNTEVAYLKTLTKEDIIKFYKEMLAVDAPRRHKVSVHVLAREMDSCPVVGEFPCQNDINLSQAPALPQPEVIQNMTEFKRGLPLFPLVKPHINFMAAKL
Briefly: Dose Response: Fluorescence polarization-based cell-based high throughput dose response assay for inhibitors of insulin-degrading enzyme (IDE). [Related pubchem assays: 434962 (Primary screen (IDE inhibitors in singlicate)), 449730 (Counterscreen (Cytotoxicity in triplicate)), 435028 (Confirmation (IDE inhibitors in triplicate)), 434984 (Summary …. The format is functional. (Polarisation of emitted light reports the rotation of a fluorescent probe.)

Assay [3] is described as follows: Counterscreen for IDE inhibitors: Luminescence-based cell-based high throughput dose response assay to identify compounds that are cytotoxic to HEK cells. [Related pubchem assays: 434962 (Primary screen (IDE inhibitors in singlicate)), 449730 (Counterscreen (Cytotoxicity in triplicate)), 435028 (Confirmation (IDE inhibitors in triplicate)) …. The format is functional. Conditions: HEK293. On the technique in general: The purpose of a counterscreen is to sort out artefacts and off-target activity.

Assay [4] deals with Streptococcus. Put plainly: Luminescence Microorganism-Based Dose Response Follow up to Identify Compounds Cytotoxic to Streptococcus. [Related pubchem assays: 1677 (Project Summary), 1915, 1914, 1902 (Retest at Dose), 1900 (Counter Screen), 1662 (Primary HTS)]. The format is functional, organism-based.
In assay [5] the target is T2, Neuropeptide Y receptor type 1 (Homo sapiens, UniProt P25929).
T2 sequence (P25929 whole entry): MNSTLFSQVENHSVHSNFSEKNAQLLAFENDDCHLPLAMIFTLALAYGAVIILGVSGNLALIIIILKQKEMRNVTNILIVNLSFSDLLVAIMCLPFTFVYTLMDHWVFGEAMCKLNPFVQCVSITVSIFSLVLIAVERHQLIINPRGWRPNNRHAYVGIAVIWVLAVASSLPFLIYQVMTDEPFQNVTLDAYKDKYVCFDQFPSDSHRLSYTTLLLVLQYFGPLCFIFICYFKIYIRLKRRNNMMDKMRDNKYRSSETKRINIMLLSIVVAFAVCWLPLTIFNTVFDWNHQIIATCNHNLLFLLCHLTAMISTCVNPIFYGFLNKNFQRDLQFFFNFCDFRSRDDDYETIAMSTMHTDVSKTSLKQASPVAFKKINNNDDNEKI
Put plainly: Fluorescence-based counterscreen for agonists of NPY-Y2: cell-based high-throughput dose response assay for agonists of NPY-Y1. The format is functional.

Assay [6] has as its target T3, Neuropeptide Y receptor type 2 (Homo sapiens, UniProt P49146).
T3 sequence (P49146 whole entry): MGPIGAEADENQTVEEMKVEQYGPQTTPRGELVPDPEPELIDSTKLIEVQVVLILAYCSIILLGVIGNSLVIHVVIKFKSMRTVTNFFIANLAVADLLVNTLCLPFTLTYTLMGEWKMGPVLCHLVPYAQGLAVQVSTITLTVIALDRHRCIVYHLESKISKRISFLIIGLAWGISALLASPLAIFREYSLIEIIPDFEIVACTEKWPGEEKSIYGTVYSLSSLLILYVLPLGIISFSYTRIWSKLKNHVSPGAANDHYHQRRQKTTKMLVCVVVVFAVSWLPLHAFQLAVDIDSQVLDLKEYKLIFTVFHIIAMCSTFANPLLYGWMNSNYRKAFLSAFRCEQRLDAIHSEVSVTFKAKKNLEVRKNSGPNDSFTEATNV
Briefly: Fluorescence-based cell-based high-throughput dose response assay for agonists of NPY-Y2. [Related pubchem assays: 1703 (Screening assay (CNGC inhibitors).), 1359 (Screening assay (NPY-Y2 potentiators or agonists).), 1304 (Screening assay (NPY-Y1 potentiators or agonists).), 1710 (Screening assay (NPY-Y2 agonists).), 1791 (Summary AID.)]. The assay is classed as functional.

Assay [7] relates to HEK293. Briefly: Fluorescence-based counterscreen for potentiators or agonists of NPY-Y2: cell-based high-throughput dose response assay to identify inhibitors of cyclic nucleotide gated ion channel (CNGC) activity. In this assay, the parental HEK293 cell line transfected with a cyclic-nucleotide gated ion channel (CNGC)-based cAMP sensor is used to measure inhibition of isoproterenol-induced CNGC activity by test compound. The assay is classed as functional. Conditions: Homo sapiens.

Assay [8] concerns the target Lysosomal acid glucosylceramidase (Homo sapiens, UniProt P04062). Briefly: Dose response cell-based high throughput screening assay to identify enhancers of beta-glucosidase activity. [Related pubchem assays: 784 ]. The assay is classed as functional.
A short description of assay [9]: Luminescence Cell-Based Dose Response HTS to Identify Activators of Luciferase Translation or Activity in H4 […] Cells. [Related pubchem assays: 1829 (Project Summary), 1814 (Primary HTS)]. The assay is classed as functional.
A short description of assay [10]: Luminescence Cell-Based Dose Confirmation HTS to Identify Activators of 5'UTR Stem-Loop Driven Alpha-Synuclein mRNA Translation in H4 Neuroglioblastoma Cells. [Related pubchem assays: 1829 (Project Summary), 1814 (Primary HTS)]. The format is functional.
Assay [11] relates to H4. Put plainly: Luminescence Cell-Based Dose Response HTS to Identify Activators of 5'UTR Stem-Loop Driven Prion Protein mRNA Translation in H4 Neuroglioblastoma Cells. [Related pubchem assays: 1829 (Project Summary), 1814 (Primary HTS)]. Conditions: Homo sapiens. The format is functional.
The target in assay [12] is Peroxisome proliferator-activated receptor gamma (Homo sapiens, UniProt P37231). Briefly: competitive ligand displacement at PPARg – biochemical, TR-FRET, LanthaScreen, PPARg partial agonist project, dose response (AID 504446). (In general: In TR-FRET formats the signal depends on donor and acceptor labels being close together.)
Sequence of Peroxisome proliferator-activated receptor gamma (P37231 whole entry): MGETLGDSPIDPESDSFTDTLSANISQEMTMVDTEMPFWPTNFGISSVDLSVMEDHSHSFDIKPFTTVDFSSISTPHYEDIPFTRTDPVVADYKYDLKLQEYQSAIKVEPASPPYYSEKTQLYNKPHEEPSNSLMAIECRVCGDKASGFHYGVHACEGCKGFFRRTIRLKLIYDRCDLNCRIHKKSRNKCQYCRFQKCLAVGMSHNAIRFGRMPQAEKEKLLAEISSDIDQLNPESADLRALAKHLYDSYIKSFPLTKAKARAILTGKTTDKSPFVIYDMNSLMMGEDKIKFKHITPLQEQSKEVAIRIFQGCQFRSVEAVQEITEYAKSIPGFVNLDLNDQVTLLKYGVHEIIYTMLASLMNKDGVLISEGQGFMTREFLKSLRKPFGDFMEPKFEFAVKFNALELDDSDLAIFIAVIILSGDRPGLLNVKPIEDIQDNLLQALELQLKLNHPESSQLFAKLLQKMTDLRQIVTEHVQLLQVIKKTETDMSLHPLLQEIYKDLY
Assay [13] concerns the target Cytochrome P450 2D6 (Homo sapiens, UniProt P10635). Briefly: qHTS Assay for Inhibitors and Substrates of Cytochrome P450 2D6. [Related pubchem assays: 410 ]. The following applies: read-out: Potency. The assay is classed as ADME.
Assay [14] deals with T2, Neuropeptide Y receptor type 1. Put plainly: Fluorescence-based dose response cell-based high-throughput screening assay for agonists of NPY-Y1. [Related pubchem assays: 1697 (Screening assay (NPY-Y1 agonists).), 1359 (Screening assay (NPY-Y2 potentiators or agonists).), 1304 (Screening assay (NPY-Y1 potentiators or agonists).), 1704 (Screening assay (CNGC inhibitors).), 1791 (Summary AID.)]. The assay is classed as functional.

For assay [15], the target named is T3, Neuropeptide Y receptor type 2. Briefly: Fluorescence-based counterscreen for agonists of NPY-Y1: cell-based high-throughput dose response assay for agonists of NPY-Y2. The assay is classed as functional.
In assay [16] the test system is HEK293. Put plainly: Fluorescence-based counterscreen for potentiators or agonists of NPY-Y1: cell-based high-throughput dose response assay for inhibitors of cyclic nucleotide gated ion channel (CNGC) activity. In this assay, the parental HEK293 cell line transfected with a cyclic-nucleotide gated ion channel (CNGC)-based cAMP sensor is used to measure inhibition of isoproterenol-induced CNGC …. The assay is classed as functional. The following applies: Homo sapiens.

Assay [17] has as its target T4, Tyrosine-protein phosphatase non-receptor type 7 (Homo sapiens, UniProt P35236).
T4 sequence (P35236 whole entry): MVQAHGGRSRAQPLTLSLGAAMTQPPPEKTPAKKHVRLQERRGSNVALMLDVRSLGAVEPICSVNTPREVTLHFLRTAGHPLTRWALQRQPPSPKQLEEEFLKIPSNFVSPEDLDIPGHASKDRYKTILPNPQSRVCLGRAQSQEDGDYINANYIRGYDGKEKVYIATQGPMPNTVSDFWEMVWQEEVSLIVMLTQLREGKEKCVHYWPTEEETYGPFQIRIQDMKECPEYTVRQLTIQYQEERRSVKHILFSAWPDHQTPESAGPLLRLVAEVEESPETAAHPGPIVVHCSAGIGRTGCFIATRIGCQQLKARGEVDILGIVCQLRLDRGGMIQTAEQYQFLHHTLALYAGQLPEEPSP
Put plainly: redox-active compounds inhibiting HePTP phosphatase – biochemical, fluorescence, mechanism study (AID 2068). The format is functional.

Assay [18] addresses Induced myeloid leukemia cell differentiation protein Mcl-1 (Homo sapiens, UniProt Q07820). The format is functional.
The target in assay [19] is Estrogen receptor beta (Homo sapiens, UniProt Q92731). Briefly: blockers of SRC-3 recruitment to ERβ – biochemical, ELISA, streptavidin-HRP readout, orthogonal assay, confirmation (AID 1060).
Sequence of Estrogen receptor beta (Q92731 whole entry): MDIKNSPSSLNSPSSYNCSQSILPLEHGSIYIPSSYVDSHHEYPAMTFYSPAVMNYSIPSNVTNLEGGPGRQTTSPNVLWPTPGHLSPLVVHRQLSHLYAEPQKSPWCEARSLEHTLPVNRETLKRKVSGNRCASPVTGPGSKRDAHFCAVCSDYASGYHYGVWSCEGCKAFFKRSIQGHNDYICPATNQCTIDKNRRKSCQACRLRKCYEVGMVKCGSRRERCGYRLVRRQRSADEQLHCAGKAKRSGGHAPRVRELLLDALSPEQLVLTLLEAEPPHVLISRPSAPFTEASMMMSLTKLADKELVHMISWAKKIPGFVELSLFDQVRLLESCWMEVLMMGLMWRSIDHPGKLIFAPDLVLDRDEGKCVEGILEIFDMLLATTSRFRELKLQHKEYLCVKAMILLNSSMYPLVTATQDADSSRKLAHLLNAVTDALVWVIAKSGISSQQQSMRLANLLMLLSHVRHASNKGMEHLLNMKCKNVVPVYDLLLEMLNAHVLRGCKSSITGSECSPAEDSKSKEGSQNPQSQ
For assay [20], the target named is Bcl-2-like protein 10 (Homo sapiens, UniProt Q9HD36). Briefly: Bcl-B/TR3 peptide binding disruption – biochemical, fluorescence polarization, FITC-TR3 peptide, selectivity assay for Bfl-1 inhibitor project, primary screen (AID 748).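 Also: fluorescence polarization from a fluorescein-labelled TR3 peptide binding purified Bcl-B.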
Sequence of Bcl-2-like protein 10 (Q9HD36 whole entry): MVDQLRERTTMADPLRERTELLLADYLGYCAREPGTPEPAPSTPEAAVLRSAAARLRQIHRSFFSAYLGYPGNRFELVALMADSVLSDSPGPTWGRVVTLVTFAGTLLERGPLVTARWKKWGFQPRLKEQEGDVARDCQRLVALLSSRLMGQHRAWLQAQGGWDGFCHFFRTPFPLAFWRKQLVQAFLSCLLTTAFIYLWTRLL
For assay [21], the target named is T5, Melanin-concentrating hormone receptor 1 (Homo sapiens, UniProt Q99705). Put plainly: Fluorescence-based counterscreen for antagonists of the G-protein coupled receptor 7 (GPR7): cell-based high throughput dose response assay to identify antagonists of the melanin-concentrating hormone receptor 1 (MCHR1). The assay is classed as functional.
T5 sequence (Q99705 whole entry): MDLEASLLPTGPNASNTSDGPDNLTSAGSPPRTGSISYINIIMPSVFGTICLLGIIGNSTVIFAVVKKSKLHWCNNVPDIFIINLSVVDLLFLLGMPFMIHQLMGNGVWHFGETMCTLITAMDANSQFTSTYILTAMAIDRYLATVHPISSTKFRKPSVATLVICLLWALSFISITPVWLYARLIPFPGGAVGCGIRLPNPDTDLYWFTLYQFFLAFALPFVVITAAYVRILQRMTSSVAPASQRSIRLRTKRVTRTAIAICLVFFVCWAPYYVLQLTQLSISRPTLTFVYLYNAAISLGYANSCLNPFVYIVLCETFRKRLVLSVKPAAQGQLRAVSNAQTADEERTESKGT
Assay [22] concerns the target T6, Neuropeptides B/W receptor type 1 (Homo sapiens, UniProt P48145).
T6 sequence (P48145 whole entry): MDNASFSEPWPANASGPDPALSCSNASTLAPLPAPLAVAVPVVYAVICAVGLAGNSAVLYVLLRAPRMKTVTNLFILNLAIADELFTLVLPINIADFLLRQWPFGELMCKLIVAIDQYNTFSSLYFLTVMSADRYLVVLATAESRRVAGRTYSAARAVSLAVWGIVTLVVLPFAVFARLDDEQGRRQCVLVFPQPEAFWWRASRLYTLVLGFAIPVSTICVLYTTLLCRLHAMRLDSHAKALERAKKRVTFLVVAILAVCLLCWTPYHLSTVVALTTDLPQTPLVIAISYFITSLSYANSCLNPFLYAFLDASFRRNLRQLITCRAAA
Briefly: Fluorescence-based dose response cell-based high throughput screening assay to identify antagonists of the G-protein coupled receptor 7 (GPR7). [Related pubchem assays: 1952 (Screening assay (GPR7 antagonists).), 1880 (Summary AID.)]. The format is functional.

Assay [23] addresses T5, Melanin-concentrating hormone receptor 1. Briefly: Late-stage fluorescence-based counterscreen for antagonists of the G-protein coupled receptor 7 (GPR7): cell-based dose response assay to identify antagonists of the melanin-concentrating hormone receptor 1 (MCHR1). [Related pubchem assays (depositor defined):AID1861, AID1880, AID1952, AID2148, AID2251, AID2257, AID485339]. The assay is classed as functional.

Active and inactive are the calls of the source.

Sequence of Cytochrome P450 2D6 (P10635 whole entry): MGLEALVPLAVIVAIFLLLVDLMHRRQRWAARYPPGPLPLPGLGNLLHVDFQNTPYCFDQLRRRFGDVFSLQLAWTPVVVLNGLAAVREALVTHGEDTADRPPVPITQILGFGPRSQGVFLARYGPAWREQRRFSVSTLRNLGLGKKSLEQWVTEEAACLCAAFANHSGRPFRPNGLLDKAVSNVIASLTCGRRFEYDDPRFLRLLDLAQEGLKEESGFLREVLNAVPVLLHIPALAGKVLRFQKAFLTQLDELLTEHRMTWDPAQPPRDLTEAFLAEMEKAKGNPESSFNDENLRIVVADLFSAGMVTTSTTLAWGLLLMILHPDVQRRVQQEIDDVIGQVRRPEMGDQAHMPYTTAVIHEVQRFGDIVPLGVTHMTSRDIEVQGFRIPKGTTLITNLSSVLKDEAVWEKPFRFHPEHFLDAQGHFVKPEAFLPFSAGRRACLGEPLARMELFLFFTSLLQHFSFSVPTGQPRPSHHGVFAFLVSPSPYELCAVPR
Sequence of Lysosomal acid glucosylceramidase (P04062 whole entry): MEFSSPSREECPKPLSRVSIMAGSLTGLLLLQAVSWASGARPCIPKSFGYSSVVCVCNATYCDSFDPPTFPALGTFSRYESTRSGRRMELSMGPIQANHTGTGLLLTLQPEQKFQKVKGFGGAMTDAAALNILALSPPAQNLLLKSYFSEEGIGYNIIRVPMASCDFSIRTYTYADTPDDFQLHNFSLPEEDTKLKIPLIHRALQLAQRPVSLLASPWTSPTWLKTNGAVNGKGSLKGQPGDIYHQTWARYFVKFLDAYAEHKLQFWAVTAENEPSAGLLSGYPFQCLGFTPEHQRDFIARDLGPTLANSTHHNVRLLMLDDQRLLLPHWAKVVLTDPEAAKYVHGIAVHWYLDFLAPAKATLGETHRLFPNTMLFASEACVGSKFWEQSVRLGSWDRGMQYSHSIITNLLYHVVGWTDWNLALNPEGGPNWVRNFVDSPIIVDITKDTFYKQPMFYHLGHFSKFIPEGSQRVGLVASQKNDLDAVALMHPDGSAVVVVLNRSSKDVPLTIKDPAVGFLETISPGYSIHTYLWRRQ
Sequence of Induced myeloid leukemia cell differentiation protein Mcl-1 (Q07820 whole entry): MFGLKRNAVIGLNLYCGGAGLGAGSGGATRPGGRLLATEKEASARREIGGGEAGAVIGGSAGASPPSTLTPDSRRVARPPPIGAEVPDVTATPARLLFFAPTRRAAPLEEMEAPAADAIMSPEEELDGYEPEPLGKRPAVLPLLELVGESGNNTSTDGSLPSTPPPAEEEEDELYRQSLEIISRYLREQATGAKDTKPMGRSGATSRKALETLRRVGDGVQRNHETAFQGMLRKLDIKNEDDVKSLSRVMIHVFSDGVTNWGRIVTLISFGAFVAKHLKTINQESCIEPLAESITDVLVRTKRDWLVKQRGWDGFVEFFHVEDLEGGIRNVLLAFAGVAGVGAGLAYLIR
Sequence of G-protein coupled receptor 35 (Q9HC97 whole entry): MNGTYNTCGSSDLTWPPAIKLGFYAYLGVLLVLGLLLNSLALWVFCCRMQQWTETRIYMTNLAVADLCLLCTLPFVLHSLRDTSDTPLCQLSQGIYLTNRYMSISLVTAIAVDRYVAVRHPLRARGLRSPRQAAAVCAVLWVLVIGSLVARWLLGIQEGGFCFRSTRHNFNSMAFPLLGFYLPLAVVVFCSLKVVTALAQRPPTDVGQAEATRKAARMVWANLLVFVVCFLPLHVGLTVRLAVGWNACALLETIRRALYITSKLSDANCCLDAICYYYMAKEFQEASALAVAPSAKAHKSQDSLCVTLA

Usually IC50 stands for the point on the concentration scale where inhibition reaches its midpoint. On to `CCCCCOC(=O)c1ccc(NC(=O)c2cccc(NC(=O)c3ccccc3C(=O)O)c2)cc1`, for which the IC50 in assay [1] is 1 µM (active).
Turning to `CN(C)c1ccc(/C=C2\SC(N3CCCCC3)=NC2=O)cc1`, the 50% inhibitory concentration (IC50) is reported as 17.9 µM (not active) in [2] and 23 µM (not active) in assay [3].
Usually EC50 stands for the concentration that produces a half-maximal response. For the compound `CN1C(=O)/C(=C\c2cccn2-c2ccc3ccccc3c2)C(=O)NC1=S`, the EC50 in [4] is > 260 µM (not active).
With `COc1ccc(-n2nnnc2SCC(=O)NCCc2ccccc2)cc1OC`, the EC50 in assay [5], in [6] and in assay [7] was > 35.4 µM (not active) throughout.
For the compound `COC(=O)c1sc(NC(=O)c2csc3c2CCCC3)nc1C`, the EC50 in assay [8] is > 50 µM (not active); in assay [9] it was 0.575 µM (active); in [10] it was 0.155 µM (active); in [11], 1.8 µM (active).
Take `O=C(O)CCN1C(=O)/C(=C/c2ccc(C(F)(F)F)cc2C(F)(F)F)SC1=S`: in [12], the half-inhibitory concentration (IC50) was 2 µM (active).
As to `COc1ccc2c(c1O)-c1c(OC)c(OC)cc3c1[C@@H](C2)N(C)CC3`, the AC50 in assay [13] was 15.8 µM (inconclusive).
Regarding `CC1CC(C)CN(CCCNC(=O)c2cc3c(O)nc4ccccc4c3n2C)C1` (stereo not drawn), the EC50 in assay [14] and in assay [15] was > 35.4 µM (not active) in each case. The IC50 in [16] is given as 19.8 µM (not active).
As to `O=C(NCc1ccccn1)c1ccc2nc(-c3ccco3)c(-c3ccco3)nc2c1`, the IC50 in assay [17] is 3.99 µM (active); in assay [18], 2.28 µM (active); in assay [19], 4.9 µM (not active); in [20], 9.92 µM (active).
`COc1ccc(Oc2c(Cl)cnn(-c3ccc(C)cc3)c2=O)cc1`: the IC50 is 23.6 µM (not active) in assay [21], 2.94 µM (active) in [22] and 17 µM (inactive) in assay [23].
